Data reported in ChEMBL document CHEMBL4152252, “Fluorine walk: The impact of fluorine in quinolone amides on their activity against African sleeping sickness” (Eur J Med Chem, 2018).
In brackets after ≈: the same amount, converted by molar mass.

Key:
[1] = system: Trypanosoma brucei brucei; test: Antitrypanosomal activity against trypomastigote forms of Trypanosoma brucei brucei TC 221 assessed as parasite growth inhibition after 72 hrs by Alamar blue assay; assay type: functional, organism-based; details: TC 221, 72 h
[2] = system: Trypanosoma brucei brucei; test: Antitrypanosomal activity against trypomastigote forms of Trypanosoma brucei brucei TC 221 assessed as parasite growth inhibition after 48 hrs by Alamar blue assay; assay type: functional, organism-based; details: TC 221, 48 h
[3] = Selectivity index, ratio of CC50 for mouse J774.1 cells to IC50 for trypomastigote forms of Trypanosoma brucei brucei TC 221 assessed as parasite growth inhibition after 48 hrs; assay type: toxicity; details: read-out: Ratio CC50/IC50
[4] = Thermodynamic equilibrium solubility of the compound in pH 7.4 phosphate buffered saline after 24 hrs by shake flask method; assay type: physicochemical; details: read-out: Therm_solubility
[5] = Octanol/water partition co-efficient, log P of the compound by HPLC based method; assay type: physicochemical
[6] = Cytotoxicity against mouse J774.1 cells after 24 hrs by Alamar blue assay; assay type: cell-based
[7] = Solubility of the compound in RPMI-1640 medium; assay type: physicochemical
[8] = Drug level in rat liver microsomes assessed as CYP450-mediated metabolite formation treated with N-benzyl-1-butyl-5-fluoro-7-morpholino-4-oxo-1,4-dihydroquinoline-3-carboxamide at 100 uM using NADPH/H+ as co-factor after 30 to 90 mins by LC/MSD iom trap method; assay type: ADME
[9] = Drug level in rat liver cytosol assessed as CYP450-mediated metabolite formation treated with N-benzyl-1-butyl-5-fluoro-7-morpholino-4-oxo-1,4-dihydroquinoline-3-carboxamide at 100 uM using NADPH/H+ as co-factor after 30 to 90 mins by LC/MSD iom trap method; assay type: ADME, subcellular
[10] = Drug level in rat liver microsomes assessed as CYP450-mediated metabolite formation treated with 1-Butyl-6-fluoro-N-(4-fluorobenzyl)-7-morpholino-4-oxo-1,4-dihydroquinoline-3-carboxamide at 100 uM using NADPH/H+ as co-factor after 30 to 90 mins by LC/MSD iom trap method; assay type: ADME
[11] = Drug level in rat liver cytosol assessed as CYP450-mediated metabolite formation treated with 1-Butyl-6-fluoro-N-(4-fluorobenzyl)-7-morpholino-4-oxo-1,4-dihydroquinoline-3-carboxamide at 100 uM using NADPH/H+ as co-factor after 30 to 90 mins by LC/MSD iom trap method; assay type: ADME, subcellular
[12] = Drug level in rat liver cytosol assessed as CYP450-mediated metabolite formation treated with 1-Butyl-5-fluoro-N-(4-fluorobenzyl)-7-morpholino-4-oxo-1,4-dihydroquinoline-3-carboxamide at 100 uM using NADPH/H+ as co-factor after 30 to 90 mins by LC/MSD iom trap method; assay type: ADME, subcellular
[13] = Drug level in rat liver microsomes assessed as CYP450-mediated metabolite formation treated with 1-Butyl-5-fluoro-N-(4-fluorobenzyl)-7-morpholino-4-oxo-1,4-dihydroquinoline-3-carboxamide at 100 uM using NADPH/H+ as co-factor after 30 to 90 mins by LC/MSD iom trap method; assay type: ADME
[14] = Half life in rat liver cytosol; assay type: ADME, subcellular
[15] = Stability in rat liver cytosol assessed as compound turnover per mg protein; assay type: ADME, subcellular
[16] = Drug metabolism in rat liver cytosol assessed as CYP450-mediated amide hydrolysis amidase by measuring 1-butyl-3-carbamoyl-5-fluoro-7-morpholino-4-oxo-1,4-dihydroquinolinium formation at 100 uM using NADPH/H+ as co-factor after 30 to 90 mins by LC/MSD iom trap method; assay type: ADME, subcellular
[17] = Drug metabolism in rat liver cytosol assessed as CYP450-mediated amide hydrolysis oxidative N-dealkylation by measuring 3-carbamoyl-5-fluoro-1-methyl-7-morpholino-4-oxo-1,4-dihydroquinolinium formation at 100 uM using NADPH/H+ as co-factor after 30 to 90 mins by LC/MSD iom trap method; assay type: ADME, subcellular
[18] = Drug metabolism in rat liver microsomes assessed as CYP450-mediated amide hydrolysis oxidative N-dealkylation by measuring 3-carbamoyl-5-fluoro-1-methyl-7-morpholino-4-oxo-1,4-dihydroquinolinium formation at 100 uM using NADPH/H+ as co-factor after 30 to 90 mins by LC/MSD iom trap method; assay type: ADME
[19] = (§1) Drug metabolism in rat liver cytosol assessed as CYP450-mediated (w-1)-oxidation/alipathic hydroxylation by measuring 3-(benzylcarbamoyl)-5-fluoro-1-(3-hydroxybutyl)-7-morpholino-4-oxo-1,4-dihydroquinolinium formation at 100 uM using NADPH/H+ as co-factor after 30 to 90 mins by LC/MSD iom trap method; assay type: ADME, subcellular
[20] = Drug metabolism in rat liver microsomes assessed as CYP450-mediated oxidative N-dealkylation by measuring 3-(benzylcarbamoyl)-1-ethyl-5-fluoro-7-morpholino-4-oxo-1,4-dihydroquinolinium formation at 100 uM using NADPH/H+ as co-factor after 30 to 90 mins by LC/MSD iom trap method; assay type: ADME
[21] = Drug metabolism in rat liver cytosol assessed as CYP450-mediated oxidative N-dealkylation by measuring 3-(benzylcarbamoyl)-1-ethyl-5-fluoro-7-morpholino-4-oxo-1,4-dihydroquinolinium formation at 100 uM using NADPH/H+ as co-factor after 30 to 90 mins by LC/MSD iom trap method; assay type: ADME, subcellular
[22] = as §1, with “microsomes” for “cytosol”; assay type: ADME
[23] = Drug metabolism in rat liver microsomes assessed as CYP450-mediated amide hydrolysis amidase by measuring 1-butyl-3-carbamoyl-5-fluoro-7-morpholino-4-oxo-1,4-dihydroquinolinium formation at 100 uM using NADPH/H+ as co-factor after 30 to 90 mins by LC/MSD iom trap method; assay type: ADME
[24] = Drug uptake in brain of B6/J mouse at 19.3 +/- 2.3 MBq, iv after 60 mins by autoradiography; assay type: ADME, organism-based; details: in vivo, 1 h

O=C(NCc1ccccc1)c1cn(CCCF)c2cc(N3CCOCC3)c(F)cc2c1=O
IC50 [1]: 0.17 µM
IC50 [2]: 0.12 µM
selectivity ratio at 48 h [3]: 353
solubility thermodynamic at 24 h [4]: 1.41 µg/mL (≈ 3.19 µM)
logP [5]: 3.34
CC50 at 24 h [6]: 42.4 µM

CCCCn1cc(C(=O)NCc2ccccc2)c(=O)c2cc(F)c(N3CCOCC3)c(F)c21
IC50 [1]: 0.2 µM
solubility [7]: Insoluble
IC50 [2]: 0.06 µM
selectivity ratio at 48 h [3]: > 333
logP [5]: 4.57
CC50 at 24 h [6]: > 20 µM

CC(O)CCn1cc(C(=O)NCc2ccccc2)c(=O)c2c(F)cc(N3CCOCC3)cc21 (stereo unspecified)
Drug metabolism [8]: Metabolite_Detected
Drug metabolism [9]: Metabolite_Detected

CCCCn1cc(C(=O)NCc2ccccc2)c(=O)c2ccc(N3CCOCC3)cc21
IC50 [1]: 0.2 µM
IC50 [2]: 0.23 µM
selectivity ratio at 48 h [3]: > 435
solubility thermodynamic at 24 h [4]: 1.36 µg/mL (≈ 3.24 µM)
logP [5]: 3.51
CC50 at 24 h [6]: > 100 µM

CCCCn1cc(C(=O)O)c(=O)c2cc(F)c(N3CCOCC3)cc21
Drug metabolism [10]: Metabolite_Detected
Drug metabolism [11]: Metabolite_Detected

O=C(NCc1ccc(F)cc1)c1c[nH]c2cc(N3CCOCC3)cc(F)c2c1=O
Drug metabolism [12]: Metabolite_Detected
Drug metabolism [13]: Metabolite_Detected

CCCCn1cc(C(=O)NCc2ccccc2)c(=O)c2ccc(N3CCOCC3)c(F)c21
IC50 [1]: 0.86 µM
solubility [7]: Insoluble
IC50 [2]: 0.79 µM
selectivity ratio at 48 h [3]: > 32
solubility thermodynamic at 24 h [4]: 0.23 µg/mL (≈ 0.526 µM)
logP [5]: 4.09
CC50 at 24 h [6]: > 25 µM

O=C(NCc1ccccc1)c1cn(CCCOCc2ccccc2)c2cc(N3CCOCC3)c(F)cc2c1=O
logP [5]: 3.9
CC50 at 24 h [6]: > 100 µM

CCn1cc(C(=O)NCc2ccc(F)cc2)c(=O)c2c(F)cc(N3CCOCC3)cc21
Drug metabolism [12]: Metabolite_Detected
Drug metabolism [13]: Metabolite_Detected

O=C(NCc1ccc(F)cc1)c1c[nH]c2cc(N3CCOCC3)c(F)cc2c1=O
Drug metabolism [10]: Metabolite_Detected
Drug metabolism [11]: Metabolite_Detected

CCCCn1cc(C(=O)NCc2ccccc2)c(=O)c2c(N(C)C)cc(N3CCOCC3)cc21
IC50 [1]: 4.8 µM
IC50 [2]: 1.85 µM
selectivity ratio at 48 h [3]: 24
CC50 at 24 h [6]: 44 µM

CC(O)CCn1cc(C(=O)NCc2ccc(F)cc2)c(=O)c2cc(F)c(N3CCOCC3)cc21 (stereo unspecified)
Drug metabolism [10]: Metabolite_Detected
Drug metabolism [11]: Metabolite_Detected

CCCCn1cc(C(=O)NCc2ccccc2)c(=O)c2c(F)c(F)c(N3CCOCC3)cc21
IC50 [1]: 0.03 µM
solubility [7]: Insoluble
IC50 [2]: 0.04 µM
selectivity ratio at 48 h [3]: > 625
logP [5]: 3.97
CC50 at 24 h [6]: > 25 µM

CCCCn1cc(C(=O)O)c(=O)c2c(F)cc(N3CCOCC3)cc21
Drug metabolism [12]: Metabolite_Detected
Drug metabolism [13]: Metabolite_Detected

O=C(NCc1ccccc1)c1cn(CCCO)c2cc(N3CCOCC3)c(F)cc2c1=O
IC50 [1]: 0.55 µM
IC50 [2]: 0.27 µM
selectivity ratio at 48 h [3]: 160
solubility thermodynamic at 24 h [4]: 18.7 µg/mL (≈ 42.5 µM)
logP [5]: 3.04
CC50 at 24 h [6]: 43.1 µM

Cn1cc(C(N)=O)c(=O)c2c(F)cc(N3CCOCC3)cc21
Drug metabolism [8]: Metabolite_Detected
Drug metabolism [9]: Metabolite_Detected

CCCCn1cc(C(=O)NCc2ccccc2F)c(=O)c2cc(F)c(N3CCOCC3)cc21
IC50 [1]: 0.46 µM
IC50 [2]: 0.41 µM
selectivity ratio at 48 h [3]: 90
CC50 at 24 h [6]: 37 µM

CCCCn1cc(C(=O)NCc2ccccc2)c(=O)c2cc(C(F)(F)F)c(N3CCOCC3)cc21
IC50 [1]: 0.59 µM
IC50 [2]: 0.54 µM
selectivity ratio at 48 h [3]: 146
logP [5]: 4.18
CC50 at 24 h [6]: 78.6 µM

CCCCn1cc(C(=O)NCc2ccccc2)c(=O)c2c(OC)cc(N3CCOCC3)cc21
IC50 [1]: 0.65 µM
IC50 [2]: 0.76 µM
selectivity ratio at 48 h [3]: 68
CC50 at 24 h [6]: 51.8 µM

CCCCn1cc(C(=O)NCc2ccccc2)c(=O)c2cc(F)c(N3CCOCC3)cc21
half-life [14]: 5.8 h
Drug metabolism [15]: 47.11 pmol/min/mg protein
solubility thermodynamic at 24 h [4]: 0.005 µg/mL (≈ 0.0114 µM)

CCn1cc(C(=O)NCc2ccccc2)c(=O)c2c(F)cc(N3CCOCC3)cc21
Drug metabolism [8]: Metabolite_Detected
Drug metabolism [9]: Metabolite_Detected

CCCCn1cc(C(=O)NCc2ccccc2)c(=O)c2cc(OC)c(N3CCOCC3)cc21
IC50 [1]: 0.24 µM
IC50 [2]: 0.31 µM
selectivity ratio at 48 h [3]: 135
solubility thermodynamic at 24 h [4]: 2.73 µg/mL (≈ 6.07 µM)
logP [5]: 3.73
CC50 at 24 h [6]: 42 µM

Cn1cc(C(=O)NCc2ccc(F)cc2)c(=O)c2cc(F)c(N3CCOCC3)cc21
Drug metabolism [10]: Metabolite_Detected
Drug metabolism [11]: Metabolite_Detected

CCCCn1cc(C(=O)NCc2ccccc2)c(=O)c2c(F)cc(N3CCOCC3)cc21
Drug metabolism [16]: Metabolite_Detected
half-life [14]: 7.2 h
IC50 [1]: 0.08 µM
Drug metabolism [17]: Metabolite_Detected
Drug metabolism [18]: Metabolite_Detected
Drug metabolism [19]: Metabolite_Detected
Drug metabolism [20]: Metabolite_Detected
IC50 [2]: 0.05 µM
Drug metabolism [15]: 4.3 pmol/min/mg protein
Drug metabolism [21]: Metabolite_Detected
selectivity ratio at 48 h [3]: > 2000
Drug metabolism [22]: Metabolite_Detected
solubility thermodynamic at 24 h [4]: 0.12 µg/mL (≈ 0.274 µM)
logP [5]: 3.36
Drug metabolism [23]: Metabolite_Detected
CC50 at 24 h [6]: > 100 µM

CCCCn1cc(C(N)=O)c(=O)c2c(F)cc(N3CCOCC3)cc21
Drug metabolism [8]: Metabolite_Detected
Drug metabolism [9]: Metabolite_Detected

Cn1cc(C(=O)NCc2ccc(F)cc2)c(=O)c2c(F)cc(N3CCOCC3)cc21
Drug metabolism [12]: Metabolite_Detected
Drug metabolism [13]: Metabolite_Detected

CCCCn1cc(C(=O)NCc2ccc(F)cc2F)c(=O)c2cc(F)c(N3CCOCC3)cc21
IC50 [1]: 0.03 µM
IC50 [2]: 0.03 µM
Drug metabolism [15]: 5.94 pmol/min/mg protein
selectivity ratio at 48 h [3]: 1990
CC50 at 24 h [6]: 59.6 µM

O=C(NCc1ccccc1)c1cn(CCC[18F])c2cc(N3CCOCC3)c(F)cc2c1=O
Drug uptake [24]: Active
